# Legend:
# [1] = target: T1, murine NOD1 (Mus musculus, UniProt Q8BHB0); assay: NOD1 functional agonist assay, 293mNOD1-SEAP reporter cells; assay type: cell-based; conditions: 293mNOD1 cells, OD above 3*O.D of negative control
# T1 construct: expressed in transfected cells; host or cells: HEK293
# T1 sequence (Q8BHB0 1-953): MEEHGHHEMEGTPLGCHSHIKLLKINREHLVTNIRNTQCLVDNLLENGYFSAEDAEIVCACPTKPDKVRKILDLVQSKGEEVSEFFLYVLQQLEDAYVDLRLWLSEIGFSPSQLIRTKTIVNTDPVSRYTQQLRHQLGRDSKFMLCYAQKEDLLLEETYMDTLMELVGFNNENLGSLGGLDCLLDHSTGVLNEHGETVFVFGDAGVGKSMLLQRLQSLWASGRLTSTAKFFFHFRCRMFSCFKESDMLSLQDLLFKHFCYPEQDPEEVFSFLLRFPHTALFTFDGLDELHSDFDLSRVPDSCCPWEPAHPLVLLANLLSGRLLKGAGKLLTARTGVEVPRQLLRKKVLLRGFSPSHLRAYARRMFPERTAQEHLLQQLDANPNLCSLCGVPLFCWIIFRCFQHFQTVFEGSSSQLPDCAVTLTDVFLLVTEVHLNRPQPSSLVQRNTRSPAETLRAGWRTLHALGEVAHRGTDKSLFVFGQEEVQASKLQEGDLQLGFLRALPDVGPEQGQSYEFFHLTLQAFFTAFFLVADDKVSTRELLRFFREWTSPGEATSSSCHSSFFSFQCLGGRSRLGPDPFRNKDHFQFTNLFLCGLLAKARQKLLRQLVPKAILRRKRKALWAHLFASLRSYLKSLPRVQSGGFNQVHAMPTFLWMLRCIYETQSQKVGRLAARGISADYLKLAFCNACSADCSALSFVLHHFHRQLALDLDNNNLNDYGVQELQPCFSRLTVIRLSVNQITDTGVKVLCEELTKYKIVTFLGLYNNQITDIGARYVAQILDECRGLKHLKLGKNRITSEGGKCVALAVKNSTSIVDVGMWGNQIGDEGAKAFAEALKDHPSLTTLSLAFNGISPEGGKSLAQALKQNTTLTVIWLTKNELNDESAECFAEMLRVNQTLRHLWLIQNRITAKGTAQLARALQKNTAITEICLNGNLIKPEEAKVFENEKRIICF
# Text: (§1) HEK293 cells were stably transfected with plasmid for the overexpression of the NOD1 genes and a reporter plasmid expressing a secreted embryonic alkaline phosphatase (SEAP) gene under the control of a promoter inducible by the transcription factors NF-κB and AP-1. These cells are referred herein as 293hNOD1-SEAP (for cells overexpressing the human NOD1 gene) and 293mNOD1-SEAP (for cells overexpressing the murine NOD1 gene). Upon NOD1 stimulation, these cells induce the activation of NF-κB and AP-1 and subsequently the secretion of SEAP. The reporter protein is easily detectable and measurable when using QUANTI-Blue™ (InvivoGen, San Diego, Calif.), a medium that turns purple/blue in the presence of SEAP.
# (§2) The biological activity of the compounds of the invention tested using 293hNOD1 and 293mNOD1 cells. SEAP expression was measured using the commercially available SEAP detection kit (HEK-Blue™ Detection, InvivoGen). The SEAP activity in cells was quantified using the microplate reader (FLUOStar OPTIMA, BMG laboratories), the absorbance values were read using filter with excitation at 620 nm and emission at 655 nm. The results provided in Table 2 were expressed as the concentration were a significant mean optical density (OD) can be observed (above 3*O.D of negative control). As a positive control, the NOD1 pathway was stimulated with commercially available iE-DAP (InvivoGen) and C12-iE-DAP (an acylated derivative of DAP; InvivoGen). As a negative control endotoxin-free water was used. Additionally, 293 cells expressing the SEAP gene but not the NOD1 gene were used as a control.
# [2] = target: T2, human NOD1 (Homo sapiens, UniProt Q9Y239); assay: NOD1 functional agonist assay, 293hNOD1-SEAP reporter cells; assay type: cell-based; conditions: 293hNOD1 cells, OD above 3*O.D of negative control
# T2 construct: expressed in transfected cells; host or cells: HEK293
# T2 sequence (Q9Y239 1-953): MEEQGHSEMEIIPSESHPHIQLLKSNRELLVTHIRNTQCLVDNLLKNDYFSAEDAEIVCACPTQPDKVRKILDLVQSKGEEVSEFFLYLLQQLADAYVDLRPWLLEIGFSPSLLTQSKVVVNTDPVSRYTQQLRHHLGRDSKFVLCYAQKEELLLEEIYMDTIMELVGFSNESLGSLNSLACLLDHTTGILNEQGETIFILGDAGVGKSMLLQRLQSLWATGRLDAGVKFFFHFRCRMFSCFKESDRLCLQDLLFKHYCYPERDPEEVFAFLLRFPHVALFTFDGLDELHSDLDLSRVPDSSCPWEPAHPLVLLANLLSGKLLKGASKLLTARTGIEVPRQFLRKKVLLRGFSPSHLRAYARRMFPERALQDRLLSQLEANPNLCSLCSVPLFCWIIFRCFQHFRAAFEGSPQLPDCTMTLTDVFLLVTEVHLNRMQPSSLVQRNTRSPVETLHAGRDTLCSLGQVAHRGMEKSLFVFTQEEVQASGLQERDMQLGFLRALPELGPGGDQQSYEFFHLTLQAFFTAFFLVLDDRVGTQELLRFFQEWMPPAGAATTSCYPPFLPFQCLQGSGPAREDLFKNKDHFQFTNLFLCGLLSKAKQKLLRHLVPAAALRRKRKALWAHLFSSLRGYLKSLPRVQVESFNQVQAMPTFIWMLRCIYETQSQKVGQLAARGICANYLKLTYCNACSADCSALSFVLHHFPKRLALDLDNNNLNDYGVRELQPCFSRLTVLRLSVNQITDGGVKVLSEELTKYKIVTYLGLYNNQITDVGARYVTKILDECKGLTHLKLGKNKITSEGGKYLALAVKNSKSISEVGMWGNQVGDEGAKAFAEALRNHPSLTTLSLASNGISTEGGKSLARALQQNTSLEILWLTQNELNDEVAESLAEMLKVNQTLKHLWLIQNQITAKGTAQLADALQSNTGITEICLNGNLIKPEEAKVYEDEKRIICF
# Text: as §1, §2
Structure (SMILES),mNod1: concentration where a significant mean optical density (OD) can be observed [1],hNod1: concentration where a significant mean optical density (OD) can be observed [2]
"C[C@@H](NC(=O)[C@@H](CSC[C@H](N)C(=O)O)NC(=O)CC[C@@H](N)C(=O)O)C(=O)O [Example 14, N^5-((S)-3-(((R)-2-amino-2-carboxyethyl)thio)-1-(((R)-1-carboxyethyl)amino)-1-oxopropan-2-yl)-D-glutamine]",10 µg/mL,1 µg/mL
"CCCCCCCCCCCCCC(=O)N[C@H](C(=O)N[C@H](CCC(=O)N[C@H](CSC[C@H](N)C(=O)O)C(=O)O)C(=O)O)C(C)C [Example 12, N^5-((S)-2-(((R)-2-amino-2-carboxyethyl)thio)-1-carboxyethyl)-N^2-(tetradecanoyl-L-valyl)-D-glutamine]",0.1 µg/mL,0.001 µg/mL
"CCCCCCCCCCCCCC(=O)N[C@@H](Cc1ccccc1)C(=O)N[C@H](CCC(=O)N[C@H](CSC[C@H](N)C(=O)O)C(=O)O)C(=O)O [Example 13, N^5-((S)-2-(((R)-2-amino-2-carboxyethyl)thio)-1-carboxyethyl)-N^2-(tetradecanoyl-L-phenylalanyl)-D-glutamine]",1 µg/mL,0.001 µg/mL
"CC[C@@H](C)[C@H](N)C(=O)N[C@H](CCC(=O)N[C@H](CSC[C@H](N)C(=O)O)C(=O)O)C(=O)O [Example 7, N^2-(L-alloisoleucyl)-N^5-((S)-2-(((R)-2-amino-2-carboxyethyl)thio)-1-carboxyethyl)-D-glutamine]",1 µg/mL,0.1 µg/mL
"CCCCCCCCCCCC(=O)N[C@@H](C)C(=O)N[C@H](CCC(=O)N[C@H](CSC[C@H](N)C(=O)O)C(=O)N[C@H](C)C(=O)O)C(=O)O [Example 20, N^5-((S)-3-(((R)-2-amino-2-carboxyethyl)thio)-1-(((R)-1-carboxyethyl)amino)-1-oxopropan-2-yl)-N^2-(dodecanoyl-L-alanyl)-D-glutamine]",0.01 µg/mL,0.01 µg/mL
"CCCCCCCCCCCCCC(=O)N[C@@H](CC(C)C)C(=O)N[C@H](CCC(=O)N[C@H](CSC[C@H](N)C(=O)O)C(=O)O)C(=O)O [Example 10, N^5-((S)-2-(((R)-2-amino-2-carboxyethyl)thio)-1-carboxyethyl)-N^2-(tetradecanoyl-L-leucyl)-D-glutamine]",0.1 µg/mL,0.001 µg/mL
"CCCCCCCCCCCCCC(=O)N[C@@H](C)C(=O)N[C@H](CCC(=O)N[C@H](CSC[C@H](N)C(=O)O)C(=O)N[C@H](C)C(=O)O)C(=O)O [Example 21, N^5-((S)-3-(((R)-2-amino-2-carboxyethyl)thio)-1-(((R)-1-carboxyethyl)amino)-1-oxopropan-2-yl)-N^2-(tetradecanoyl-L-alanyl)-D-glutamine]",0.001 µg/mL,0.01 µg/mL
"CC(C)C[C@H](N)C(=O)N[C@H](CCC(=O)N[C@H](CSC[C@H](N)C(=O)O)C(=O)O)C(=O)O [Example 6, N^2-(L-leucyl)-N^5-((S)-2-(((R)-2-amino-2-carboxyethyl)thio)-1-carboxyethyl)-D-glutamine]",1 µg/mL,0.1 µg/mL
"C[C@H](N)C(=O)N[C@H](CCC(=O)N[C@H](CSC[C@H](N)C(=O)O)C(=O)N[C@H](C)C(=O)O)C(=O)O [Example 18, N^2-(L-alanyl)-N^5-((S)-3-(((R)-2-amino-2-carboxyethyl)thio)-1-(((R)-1-carboxyethyl)amino)-1-oxopropan-2-yl)-D-glutamine]",1 µg/mL,1 µg/mL

# Continued, values first:
mNod1: concentration where a significant mean optical density (OD) can be observed [1],hNod1: concentration where a significant mean optical density (OD) can be observed [2],Structure (SMILES)
100 µg/mL,100 µg/mL,"C[C@H](N)C(=O)N[C@H](CCC(=O)N[C@@H](COC[C@@H](N)C(=O)O)C(=O)O)C(=O)O [Example 36, N^2-(L-alanyl)-N^5-((S)-2-((R)-2-amino-2-carboxyethoxy)-1-carboxyethyl)-D-glutamine]"
1 µg/mL,1 µg/mL,"CCCCCCC(=O)N[C@@H](C)C(=O)N[C@H](CCC(=O)N[C@H](CSC[C@H](N)C(=O)O)C(=O)NCC(=O)O)C(=O)O [Example 27, N^5-((S)-3-(((R)-2-amino-2-carboxyethyl)thio)-1-((carboxymethyl)amino)-1-oxopropan-2-yl)-N^2-(heptanoyl-L-alanyl)-D-glutamine]"
0.01 µg/mL,0.01 µg/mL,"CCCCCCCCCCCCCC(=O)N[C@H](CCC(=O)N[C@H](CSC[C@H](N)C(=O)O)C(=O)NCC(=O)O)C(=O)O [Example 25, N^5-((S)-3-(((R)-2-amino-2-carboxyethyl)thio)-1-((carboxymethyl)amino)-1-oxopropan-2-yl)-N^2-tetradecanoyl-D-glutamine]"
0.01 µg/mL,0.01 µg/mL,"CCCCCCCCCCCCCC(=O)N[C@H](CCC(=O)N[C@@H](COC[C@@H](N)C(=O)O)C(=O)O)C(=O)O [Example 35, N^5-((S)-2-((R)-2-amino-2-carboxyethoxy)-1-carboxyethyl)-N^2-tetradecanoyl-D-glutamine]"
0.01 µg/mL,0.01 µg/mL,"CCCCCCCCCCCC(=O)N[C@H](CCC(=O)N[C@H](CSC[C@H](N)C(=O)O)C(=O)NCC(=O)O)C(=O)O [Example 24, N^5-((S)-3-(((R)-2-amino-2-carboxyethyl)thio)-1-((carboxymethyl)amino)-1-oxopropan-2-yl)-N^2-dodecanoyl-D-glutamine]"
